# Values of other authors, collected in patent publication US11905435B2, “Antimicrobial additive compositions for coatings” (PEGASUS ENVIRONMENTAL RESEARCH AND INVESTMENT GROUP LLC, priority 2020, dated 2024).
# Columns and labels:
# [1] = system: Saccharomyces cerevisiae yeast; conditions: Reeder et al. [7]
# Pityrosporum ovale = conditions: Imokawa et al. [6]
# enteric bacteria = conditions: Bailey et al. [5]
Compound,anti-yeast effect on Saccharomyces cerevisiae [1],antifungal effects on Pityrosporum ovale (Pityrosporum ovale),antibacterial effects on enteric bacteria (enteric bacteria)
zinc pyrithione [CP],anti-yeast effect,antifungal effects,
OB(O)O [boric acid],,,antibacterial effects
